Reference: PubChem BioAssay AID248 (DTP/NCI, 2004)
Values joined by “and” are separate entries in the source; they are usually repeats but may differ in a detail not shown here. Identical values can stand only once. Toxic doses and inconclusive results are not listed. No stated cut-off is given here; in the data, active means T/C of 150% or more; inactive means T/C below 125%.

Tested on: L1210 leukemia ip in BDF1 mice, survival T/C
Test: NCI In Vivo Anticancer Drug Screen. Data for tumor model L1210 Leukemia (intraperitoneal) in B6D2F1 (BDF1) mice
Settings: endpoint: mean survival time, higher = longer survival
In short: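 Survival endpoint. Drug-treated group vs vehicle group, expressed as T divided by C. Tumor passaged by transplantation.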

[1] = dose: 100.0 mg/kg/injection, schedule: Q01DX009 (ip), vehicle: saline
[2] = dose: 200.0 mg/kg/injection, schedule: Q01DX009 (ip), vehicle: saline
[3] = dose: 400.0 mg/kg/injection, schedule: Q01DX009 (ip), vehicle: saline
[4] = dose: 100.0 mg/kg/injection, schedule: Q04DX003 (ip), vehicle: saline with Tween-80
[5] = dose: 200.0 mg/kg/injection, schedule: Q04DX003 (ip), vehicle: saline with Tween-80
[6] = dose: 400.0 mg/kg/injection, schedule: Q04DX003 (ip), vehicle: saline with Tween-80
[7] = dose: 100.0 mg/kg/injection, schedule: Q01DX009 (ip), vehicle: Klucel (hydroxypropylcellulose) (HPC)
[8] = dose: 200.0 mg/kg/injection, schedule: Q01DX009 (ip), vehicle: Klucel (hydroxypropylcellulose) (HPC)
[9] = dose: 400.0 mg/kg/injection, schedule: Q01DX009 (ip), vehicle: Klucel (hydroxypropylcellulose) (HPC)
[10] = dose: 100.0 mg/kg/injection, schedule: Q04DX002 (ip), vehicle: Klucel (hydroxypropylcellulose) (HPC)
[11] = dose: 200.0 mg/kg/injection, schedule: Q04DX002 (ip), vehicle: Klucel (hydroxypropylcellulose) (HPC)
[12] = dose: 50.0 mg/kg/injection, schedule: Q01DX009 (ip), vehicle: saline
[13] = dose: 100.0 mg/kg/injection, schedule: Q04DX003 (ip), vehicle: saline
[14] = dose: 200.0 mg/kg/injection, schedule: Q04DX003 (ip), vehicle: saline
[15] = dose: 100.0 mg/kg/injection, schedule: Q01DX001 (ip), vehicle: carboxymethylcellulose (CMC)
[16] = dose: 200.0 mg/kg/injection, schedule: Q01DX001 (ip), vehicle: carboxymethylcellulose (CMC)
[17] = dose: 400.0 mg/kg/injection, schedule: Q01DX001 (ip), vehicle: carboxymethylcellulose (CMC)

Measured: T/C

CC12CCCCC1C(C(=O)O)CC2 (configuration not stated)
inactive: dose: 100.0 mg/kg/injection, schedule: Q04DX002 (ip), vehicle: saline with Tween-80 105 % of control | dose: 200.0 mg/kg/injection, schedule: Q04DX002 (ip), vehicle: saline with Tween-80 105 % of control | dose: 400.0 mg/kg/injection, schedule: Q04DX002 (ip), vehicle: saline with Tween-80 92 % of control

O=C(C[P+](c1ccccc1)(c1ccccc1)c1ccccc1)c1ccc(Br)cc1
inactive: dose: 50.0 mg/kg/injection, schedule: Q01DX001 (ip), vehicle: other 100 % of control | dose: 100.0 mg/kg/injection, schedule: Q01DX001 (ip), vehicle: other 87 % of control | dose: 200.0 mg/kg/injection, schedule: Q01DX001 (ip), vehicle: other 103 % of control | dose: 400.0 mg/kg/injection, schedule: Q01DX001 (ip), vehicle: other 105 % of control

CCN(CC)CCCC(C)Nc1ncnc2c1C(c1ccccc1)C(C)(C)O2 (configuration not stated)
inactive: [1] 106 % of control | [2] 101 % of control | [3] 101 % of control

Clc1ccc(/C=N/Nc2nc3ccccc3s2)c(Cl)c1
inactive: [4] 93 % of control | dose: 111.0 mg/kg/injection, schedule: Q01DX Z (ip), vehicle: methylcellulose (MC) 105 % of control | dose: 166.0 mg/kg/injection, schedule: Q01DX Z (ip), vehicle: methylcellulose (MC) 98 % of control | [5] 93 % of control | dose: 250.0 mg/kg/injection, schedule: Q01DX Z (ip), vehicle: methylcellulose (MC) 103 % of control | [6] 93 % of control

CCC1(O)CC2CN(CCc3c([nH]c4ccccc34)C(C(=O)OC)(c3cc4c(cc3OC)N(C)C3C(O)(C(N)=O)C(O)C5(CC)C=CCN6CCC43C65)C2)C1 (configuration not stated) (tested in a mixture with another compound)
inactive: dose: 0.43 mg/kg/injection, schedule: Q01DX009 (ip), vehicle: saline 124 % of control | dose: 1.2 mg/kg/injection, schedule: Q01DX009 (ip), vehicle: saline 97 % of control | dose: 648.0 micrograms/kg/injection, schedule: Q04DX003 (ip), vehicle: saline 123 % of control | dose: 5000.0 micrograms/kg/injection, schedule: Q04DX003 (ip), vehicle: saline 111 % of control

Cc1ccc(Cl)cc1NC(=O)C(Br)C(Br)c1ccccc1 (configuration not stated)
inactive: [7] 100 % of control | [8] 96 % of control | [9] 104 % of control

CC(C)(C)c1ccc(S(=O)(=O)Cl)cc1
inactive: [10] 97 % of control | [11] 104 % of control | dose: 400.0 mg/kg/injection, schedule: Q04DX002 (ip), vehicle: Klucel (hydroxypropylcellulose) (HPC) 90 % of control

CCCCCCCN1CCC(C(=O)CC)(c2cccc(O)c2)CC1
inactive: dose: 12.5 mg/kg/injection, schedule: Q01DX009 (ip), vehicle: Klucel (hydroxypropylcellulose) (HPC) 106 % of control | dose: 25.0 mg/kg/injection, schedule: Q01DX009 (ip), vehicle: Klucel (hydroxypropylcellulose) (HPC) 98 % of control | dose: 50.0 mg/kg/injection, schedule: Q01DX009 (ip), vehicle: Klucel (hydroxypropylcellulose) (HPC) 93 % of control and 87 % of control | [10] 93 % of control

CC(=O)c1c(OC(=O)c2ccccc2)cc(OC(=O)c2ccccc2)cc1OC(=O)c1ccccc1
inactive: [7] 101 % of control | [1] 97 % of control | [8] 93 % of control | [2] 106 % of control | [9] 95 % of control | [3] 100 % of control

CCOP(=S)(OCC)OCCN(CC)CC
inactive: dose: 5.0 mg/kg/injection, schedule: Q01DX001 (ip), vehicle: saline 101 % of control | dose: 10.0 mg/kg/injection, schedule: Q01DX001 (ip), vehicle: saline 105 % of control | dose: 20.0 mg/kg/injection, schedule: Q01DX001 (ip), vehicle: saline 105 % of control

COC(=O)c1ccc(N(C)CCC(=O)CN)cc1
inactive: dose: 100.0 mg/kg/injection, schedule: Q01DX001 (ip), vehicle: saline 98 % of control | dose: 200.0 mg/kg/injection, schedule: Q01DX001 (ip), vehicle: saline 101 % of control | dose: 400.0 mg/kg/injection, schedule: Q01DX001 (ip), vehicle: saline 104 % of control

CC1OC(C)C(Cl)C1Cl (configuration not stated)
inactive: dose: 50.0 mg/kg/injection, schedule: Q04DX002 (ip), vehicle: Klucel (hydroxypropylcellulose) (HPC) 110 % of control | [10] 95 % of control | [11] 100 % of control

NC(=O)NN=C1COC(c2ccccc2)OC1 (configuration not stated)
inactive: [12] 98 % of control | [1] 89 % of control | [13] 101 % of control | [14] 93 % of control

CCCCCCCCC(CCCCCCCC)CCc1ccccc1
inactive: dose: 100.0 mg/kg/injection, schedule: Q01DX001 (ip), vehicle: saline + alcohol 101 % of control | dose: 200.0 mg/kg/injection, schedule: Q01DX001 (ip), vehicle: saline + alcohol 100 % of control | dose: 400.0 mg/kg/injection, schedule: Q01DX001 (ip), vehicle: saline + alcohol 97 % of control

COC(=O)C(C(=O)OC)=C(C(=O)OC)C(=O)OC
inactive: [4] 89 % of control | [5] 94 % of control | [6] 93 % of control

NC(=O)NNC(N)=O
inactive: [12] 91 % of control | [1] 98 % of control | [13] 102 % of control | [14] 101 % of control

Nc1ccc(Cl)cc1-c1nc2ccccc2[nH]1
inactive: [4] 91 % of control | [5] 95 % of control | [6] 91 % of control

O=C1C(Cl)=C(Cl)C(=O)N1c1ccc(Cl)c(Cl)c1
inactive: dose: 100.0 mg/kg/injection, schedule: Q01DX009 (ip), vehicle: saline with Tween-80 98 % of control | [4] 91 % of control | dose: 200.0 mg/kg/injection, schedule: Q01DX009 (ip), vehicle: saline with Tween-80 101 % of control | [5] 87 % of control | [6] 94 % of control

CCN(CC)C(/C=C/c1ccccc1)=N\S(=O)(=O)c1ccccc1
inactive: dose: 50.0 mg/kg/injection, schedule: Q01DX001 (ip), vehicle: Klucel (hydroxypropylcellulose) (HPC) 102 % of control | dose: 100.0 mg/kg/injection, schedule: Q01DX001 (ip), vehicle: Klucel (hydroxypropylcellulose) (HPC) 105 % of control | dose: 200.0 mg/kg/injection, schedule: Q01DX001 (ip), vehicle: Klucel (hydroxypropylcellulose) (HPC) 104 % of control

O=[N+]([O-])/C=C\c1cc2ccccc2c2ccccc12
inactive: [15] 94 % of control | [16] 94 % of control | [17] 94 % of control

Cc1cc(NC(=O)Nc2ccc(F)cc2)no1
inactive: [15] 100 % of control | dose: 100.0 mg/kg/injection, schedule: Q01DX009 (ip), vehicle: carboxymethylcellulose (CMC) 97 % of control and 105 % of control | dose: 100.0 mg/kg/injection, schedule: Q04DX002 (ip), vehicle: carboxymethylcellulose (CMC) 104 % of control | [16] 97 % of control | dose: 200.0 mg/kg/injection, schedule: Q01DX009 (ip), vehicle: carboxymethylcellulose (CMC) 97 % of control | dose: 200.0 mg/kg/injection, schedule: Q04DX002 (ip), vehicle: carboxymethylcellulose (CMC) 92 % of control and 102 % of control | [17] 101 % of control | dose: 400.0 mg/kg/injection, schedule: Q01DX009 (ip), vehicle: carboxymethylcellulose (CMC) 94 % of control and 95 % of control | dose: 400.0 mg/kg/injection, schedule: Q04DX002 (ip), vehicle: carboxymethylcellulose (CMC) 92 % of control and 94 % of control
